Marks after values point to notes of the source that are not given here.
Columns and labels:
Format in all cases: in vivo
mice = assay: Defensive (marble) burying test in mice; conditions: mouse, administered alone, S.C., pre-treatment 30 min
Description: Marble burying has been developed and validated as a pre-clinical assay of potential anxiolytic activity (Andrews and Broekkamp (1993). Procedures to identify anxiolytic or anxiogenic agents. In Behavioural Neuroscience, ed. A Sahgal, pp. 37-54. IRL Press, Oxford). The marble burying test places a naive mouse into a novel environment containing 25 marbles (arranged on top of a saw dust surface). A reduction in the number of marbles buried by the mouse has been hypothesised to be an anxiolytic-like/anti-depressant-like effect.
A further series of three separate experiments were conducted during which three single doses of mirtazapine (0.3, 1, 3 mg.kg^−1) were co-administered S.C. with a range of S.C. gepirone doses (0, 0.1, 0.3, 1, 3 mg.kg^−1).

Sprague-Dawley rats [1] = assay: Psychotropic drug class prediction by discriminant analysis of effects on rat sleep-waking behaviour; conditions: I.P.
Method: The effect profiles for these compounds at active doses were subjected to a discriminant analysis over these 6 psychoactive classes with placebo being added as an extra class. The resulting discriminant function was used to predict the pharmaco-therapeutic application area for gepirone alone and after co-administration with mirtazapine. Finally, the effect profiles of gepirone, mirtazapine, and the combination of gepirone and mirtazapine were calculated on the basis of vectors derived from the changes in sleep-wake organisation as shown in tables above. For each dose, the probability that the compound belongs to one of 7 defined classes was calculated.

Sprague-Dawley rats [2] = assay: EEG sleep-waking behaviour test in rats; conditions: rat, I.P., change over control
Method: The aim of this test was to characterise the effects on rat sleep-waking behaviour of gepirone alone and of gepirone after co-administration with mirtazapine. To this end additionally the effects of mirtazapine on it own were investigated. Sleep-waking behaviour was analysed by using electroencephalographic (EEG) recordings, electromyographic (EMG) recordings, and by recording a movement index. On the basis of these signals sleep-waking behaviour was automatically classified per 2 second periods into 6 classes: active waking, passive waking, light sleep, deep sleep, intermediate stage sleep and REM sleep (Ruigt et al. A large scale automated system for rat sleep staging. I. Methodology and technical aspects. Electroenceph. and Clin. Neurophysiol.; 1989; 73:52-64). Each experiment is performed simultaneously on 32 adult male Sprague-Dawley rats (Harlan Olac, Bicester, UK, weighing […]), subdivided into four treatment groups. Throughout the whole experiment the animals stay in recording cages and are only taken out to be injected with vehicle or test compound(s). Each experiment contains three sessions. The first session (“test session”), commencing at 10:00 AM with a variable duration of 2-5 hours, serves as adaptation period and is used to assess the quality of the EEG and EMG signals recorded. The second and third sessions both start at 2:30 PM on two consecutive days and have a duration of 15.5 hours each. At the start of the second session all groups receive a vehicle treatment, at the start of the third session all groups receive their test compound(s). One of the treatment groups usually receives the vehicle treatment in both sessions to serve as a baseline for the other groups in the experiment. Separate experiments were done in which different single I.P. administered doses of either gepirone (1.0, 3.0, 10.0 mg/kg), or mirtazapine (2.2, 4.6, 10 mg/kg), or mirtazapine (2.2 mg/kg) in combination with gepirone (1.0, 3.0, 10 mg/kg) were tested. Gepirone was dissolved in 0.9% NaCl m/v in water (saline); mirtazapine was dissolved in 5% m/v Mulgofen (EL 719, GAF) in saline (=0.9% m/v NaCl in water). The drug-induced changes in sleep waking behaviours after I.P. administration of mirtazapine, gepirone, and mirtazapine in combination with gepirone are presented in Tables II, III and IV. […]

[3] = gepir 1.0 mg/kg, 0 to 3 hours after drug injection
[4] = gepir 1.0 mg/kg, 3 to 6 hours after drug injection
[5] = gepir 1.0 mg/kg, 9 to 15 hours after drug injection
[6] = gepir 3.0 mg/kg, 0 to 3 hours after drug injection
[7] = gepir 3.0 mg/kg, 3 to 6 hours after drug injection
[8] = gepir 3.0 mg/kg, 9 to 15 hours after drug injection
[9] = gepir 10.0 mg/kg, 0 to 3 hours after drug injection
[10] = gepir 10.0 mg/kg, 3 to 6 hours after drug injection
[11] = gepir 10.0 mg/kg, 9 to 15 hours after drug injection
[12] = mirt 2.2 mg/kg, 0 to 3 hours after drug injection
[13] = mirt 2.2 mg/kg, 3 to 6 hours after drug injection
[14] = mirt 2.2 mg/kg, 9 to 15 hours after drug injection

CC1(C)CC(=O)N(CCCCN2CCN(c3ncccn3)CC2)C(=O)C1 [Gepirone, gepirone] was tested, and the ED50 marble burying (mice) was 2.16 mg/kg, the “Probability score AC (anticonvulsant)” value (Sprague-Dawley rats [1]; gepirone 1.0 mg/kg) was 7% and the “Probability score AD (antidepressant)” value (Sprague-Dawley rats [1]; gepirone 1.0 mg/kg) was 1%. For the same compound, the “Probability score APS (antipsychotic)” value (Sprague-Dawley rats [1]; gepirone 1.0 mg/kg) was 31%, the “Probability score AXL (anxiolytic)” value (Sprague-Dawley rats [1]; gepirone 1.0 mg/kg) was 6% and the “Probability score HYP (hypnotic)” value (Sprague-Dawley rats [1]; gepirone 1.0 mg/kg) was 20%. The “Probability score PLAC (placebo)” value (Sprague-Dawley rats [1]; gepirone 1.0 mg/kg) was 35%, the “Probability score STIM (stimulant)” value (Sprague-Dawley rats [1]; gepirone 1.0 mg/kg) was 0% and the “Probability score AC (anticonvulsant)” value (Sprague-Dawley rats [1]; gepirone 3.0 mg/kg) was 29%. The “Probability score AD (antidepressant)” value (Sprague-Dawley rats [1]; gepirone 3.0 mg/kg) was 28%, the “Probability score APS (antipsychotic)” value (Sprague-Dawley rats [1]; gepirone 3.0 mg/kg) was 14% and the “Probability score AXL (anxiolytic)” value (Sprague-Dawley rats [1]; gepirone 3.0 mg/kg) was 15%. For the same compound, the “Probability score HYP (hypnotic)” value (Sprague-Dawley rats [1]; gepirone 3.0 mg/kg) was 9%, the “Probability score PLAC (placebo)” value (Sprague-Dawley rats [1]; gepirone 3.0 mg/kg) was 6% and the “Probability score STIM (stimulant)” value (Sprague-Dawley rats [1]; gepirone 3.0 mg/kg) was 0%. For the same compound, the “Probability score AC (anticonvulsant)” value (Sprague-Dawley rats [1]; gepirone 10.0 mg/kg) was 6%, the “Probability score AD (antidepressant)” value (Sprague-Dawley rats [1]; gepirone 10.0 mg/kg) was 16% and the “Probability score APS (antipsychotic)” value (Sprague-Dawley rats [1]; gepirone 10.0 mg/kg) was 3%. For the same compound, the “Probability score AXL (anxiolytic)” value (Sprague-Dawley rats [1]; gepirone 10.0 mg/kg) was 63%, the “Probability score HYP (hypnotic)” value (Sprague-Dawley rats [1]; gepirone 10.0 mg/kg) was 0% and the “Probability score PLAC (placebo)” value (Sprague-Dawley rats [1]; gepirone 10.0 mg/kg) was 0%. For the same compound, the “Probability score STIM (stimulant)” value (Sprague-Dawley rats [1]; gepirone 10.0 mg/kg) was 12%, the “Latency from time of injection to Deep sleep” value (“Latency … to Deep sleep” below) (Sprague-Dawley rats [2]; [3]) was 24% and the “Latency from time of injection to REM sleep” value (shortened to “Latency … to REM sleep”) (Sprague-Dawley rats [2]; [3]) was 3%. The “Median duration Active waking” value (Sprague-Dawley rats [2]; [3]) was −58* %, the “Median duration Deep sleep” value (Sprague-Dawley rats [2]; [3]) was −2% and the “Median duration Intermediate sleep” value (Sprague-Dawley rats [2]; [3]) was −11%. The “Median duration Light sleep” value (Sprague-Dawley rats [2]; [3]) was 23%, the “Median duration Passive waking” value (Sprague-Dawley rats [2]; [3]) was 13% and the “Median duration REM sleep” value (Sprague-Dawley rats [2]; [3]) was 4%. For the same compound, the “Median duration Active waking” value (Sprague-Dawley rats [2]; [4]) was 6%, the “Median duration Deep sleep” value (Sprague-Dawley rats [2]; [4]) was −5% and the “Median duration Intermediate sleep” value (Sprague-Dawley rats [2]; [4]) was 32%. The “Median duration Light sleep” value (Sprague-Dawley rats [2]; [4]) was 8%, the “Median duration Passive waking” value (Sprague-Dawley rats [2]; [4]) was 5% and the “Median duration REM sleep” value (Sprague-Dawley rats [2]; [4]) was 20%. The “Median duration Deep sleep” value (Sprague-Dawley rats [2]; [5]) was 2%, the “Median duration Intermediate sleep” value (Sprague-Dawley rats [2]; [5]) was −2% and the “Median duration Light sleep” value (Sprague-Dawley rats [2]; [5]) was 14%. For the same compound, the “Median duration Passive waking” value (Sprague-Dawley rats [2]; [5]) was 38%, the “Median duration REM sleep” value (Sprague-Dawley rats [2]; [5]) was −12% and the “Median duration Active waking” value (Sprague-Dawley rats [2]; gepir 1.0 mg/kg) was −16%. The “Latency … to Deep sleep” value (Sprague-Dawley rats [2]; [6]) was 24%, the “Latency … to REM sleep” value (Sprague-Dawley rats [2]; [6]) was 360* % and the “Median duration Active waking” value (Sprague-Dawley rats [2]; [6]) was −8%. For the same compound, the “Median duration Deep sleep” value (Sprague-Dawley rats [2]; [6]) was −21%, the “Median duration Intermediate sleep” value (Sprague-Dawley rats [2]; [6]) was −76% and the “Median duration Light sleep” value (Sprague-Dawley rats [2]; [6]) was 8%. The “Median duration Passive waking” value (Sprague-Dawley rats [2]; [6]) was 156* %, the “Median duration REM sleep” value (Sprague-Dawley rats [2]; [6]) was −83* % and the “Median duration Active waking” value (Sprague-Dawley rats [2]; [7]) was 30%. The “Median duration Deep sleep” value (Sprague-Dawley rats [2]; [7]) was −6%, the “Median duration Intermediate sleep” value (Sprague-Dawley rats [2]; [7]) was 64* % and the “Median duration Light sleep” value (Sprague-Dawley rats [2]; [7]) was −2%. The “Median duration Passive waking” value (Sprague-Dawley rats [2]; [7]) was 13%, the “Median duration REM sleep” value (Sprague-Dawley rats [2]; [7]) was −3% and the “Median duration Active waking” value (Sprague-Dawley rats [2]; [8]) was −37* %. The “Median duration Deep sleep” value (Sprague-Dawley rats [2]; [8]) was −7%, the “Median duration Intermediate sleep” value (Sprague-Dawley rats [2]; [8]) was 36% and the “Median duration Light sleep” value (Sprague-Dawley rats [2]; [8]) was 67%. For the same compound, the “Median duration Passive waking” value (Sprague-Dawley rats [2]; [8]) was 55%, the “Median duration REM sleep” value (Sprague-Dawley rats [2]; [8]) was 40% and the “Latency … to Deep sleep” value (Sprague-Dawley rats [2]; [9]) was 268%. The “Latency … to REM sleep” value (Sprague-Dawley rats [2]; [9]) was 673* %, the “Median duration Active waking” value (Sprague-Dawley rats [2]; [9]) was 72% and the “Median duration Deep sleep” value (Sprague-Dawley rats [2]; [9]) was −63* %. For the same compound, the “Median duration Intermediate sleep” value (Sprague-Dawley rats [2]; [9]) was −100* %, the “Median duration Light sleep” value (Sprague-Dawley rats [2]; [9]) was −2% and the “Median duration Passive waking” value (Sprague-Dawley rats [2]; [9]) was 198%. The “Median duration REM sleep” value (Sprague-Dawley rats [2]; [9]) was −100* %, the “Median duration Active waking” value (Sprague-Dawley rats [2]; [10]) was −18% and the “Median duration Deep sleep” value (Sprague-Dawley rats [2]; [10]) was −19%. For the same compound, the “Median duration Intermediate sleep” value (Sprague-Dawley rats [2]; [10]) was 56%, the “Median duration Light sleep” value (Sprague-Dawley rats [2]; [10]) was 35% and the “Median duration Passive waking” value (Sprague-Dawley rats [2]; [10]) was −40%. The “Median duration REM sleep” value (Sprague-Dawley rats [2]; [10]) was −50* %, the “Median duration Active waking” value (Sprague-Dawley rats [2]; [11]) was −23* % and the “Median duration Deep sleep” value (Sprague-Dawley rats [2]; [11]) was −5%. The “Median duration Intermediate sleep” value (Sprague-Dawley rats [2]; [11]) was 108* %, the “Median duration Light sleep” value (Sprague-Dawley rats [2]; [11]) was 23% and the “Median duration Passive waking” value (Sprague-Dawley rats [2]; [11]) was 7%. The “Median duration REM sleep” value (Sprague-Dawley rats [2]; [11]) was 64%.
With CN1CCN2c3ncccc3Cc3ccccc3C2C1 (centres unmarked) [Mirtazapine, mirtazapine] the ED50 marble burying (mice) was 5.5 mg/kg, the “Probability score AC (anticonvulsant)” value (Sprague-Dawley rats [1]; mirtazapine 2.2 mg/kg) was 9% and the “Probability score AD (antidepressant)” value (Sprague-Dawley rats [1]; mirtazapine 2.2 mg/kg) was 22%. The “Probability score APS (antipsychotic)” value (Sprague-Dawley rats [1]; mirtazapine 2.2 mg/kg) was 3%, the “Probability score AXL (anxiolytic)” value (Sprague-Dawley rats [1]; mirtazapine 2.2 mg/kg) was 20% and the “Probability score HYP (hypnotic)” value (Sprague-Dawley rats [1]; mirtazapine 2.2 mg/kg) was 29%. The “Probability score PLAC (placebo)” value (Sprague-Dawley rats [1]; mirtazapine 2.2 mg/kg) was 16%, the “Probability score STIM (stimulant)” value (Sprague-Dawley rats [1]; mirtazapine 2.2 mg/kg) was 0% and the “Latency … to Deep sleep” value (Sprague-Dawley rats [2]; [12]) was −36%. The “Latency … to REM sleep” value (Sprague-Dawley rats [2]; [12]) was 27%, the “Median duration Active waking” value (Sprague-Dawley rats [2]; [12]) was 19% and the “Median duration Deep sleep” value (Sprague-Dawley rats [2]; [12]) was 13%. For the same compound, the “Median duration Intermediate sleep” value (Sprague-Dawley rats [2]; [12]) was −85* %, the “Median duration Light sleep” value (Sprague-Dawley rats [2]; [12]) was 7% and the “Median duration Passive waking” value (Sprague-Dawley rats [2]; [12]) was −5%. For the same compound, the “Median duration REM sleep” value (Sprague-Dawley rats [2]; [12]) was −88* %, the “Median duration Active waking” value (Sprague-Dawley rats [2]; [13]) was 68% and the “Median duration Deep sleep” value (Sprague-Dawley rats [2]; [13]) was 19%. The “Median duration Intermediate sleep” value (Sprague-Dawley rats [2]; [13]) was −74* %, the “Median duration Light sleep” value (Sprague-Dawley rats [2]; [13]) was 10% and the “Median duration Passive waking” value (Sprague-Dawley rats [2]; [13]) was 17%. The “Median duration REM sleep” value (Sprague-Dawley rats [2]; [13]) was −52* %, the “Median duration Active waking” value (Sprague-Dawley rats [2]; [14]) was −16% and the “Median duration Deep sleep” value (Sprague-Dawley rats [2]; [14]) was 20%. For the same compound, the “Median duration Light sleep” value (Sprague-Dawley rats [2]; [14]) was 27%, the “Median duration Passive waking” value (Sprague-Dawley rats [2]; [14]) was −8% and the “Median duration REM sleep” value (Sprague-Dawley rats [2]; [14]) was 22%. The “Median duration Intermediate sleep” value (Sprague-Dawley rats [2]; mirt 2.2 mg/kg) was 111%.

Source: patent US6835728B2, “Drug combination for the treatment of depression and related disorders comprising mirtazapine” (Akzo Nobel N.V., priority 2001, dated 2004)
